# Measured values taken from patent publication US20230346717A1, “IDENTIFICATION AND USE OF COMPOUNDS IN THE TREATMENT OR PREVENTION OF SEVERE ACUTE RESPIRATORY SYNDROME CORONAVIRUS 2” (priority 2020, published 2023).
# Where a name gives a salt, the structure may show the parent alone.
# Columns and labels:
# CTSL = type: cell-based, human; details: ARPE-19/HPV-16 cells, 10 μM drug, 24 hours
# Method: The retinal pigment epithelia cell line, ARPE-19/HPV-16, was chosen to establish a database of drug profiles because of its non-cancerous, human origin, with a normal karyotype.
# Cells were aliquoted on 96-well plates (˜2×10^5 cells/well) and incubated for 24 hours prior to providing fresh media with a drug, or the drug vehicle (water, dimethyl sulfoxide, ethanol, methanol, or phosphate-buffered saline solution). Drugs were diluted 1000-fold in buffered Advanced D-MEM/F-12 culture medium (Invitrogen, Carlsbad, CA) containing nonessential amino acids and 110 mg/L sodium pyruvate.
# Cells were harvested 24 hours after treatment and RNA was extracted using the RNeasy 96 protocol (Qiagen, Valencia, CA). Gene expression for 22,238 probe sets of 12,490 genes was generated with U133A2.0 microarrays following the manufacturer's instructions (Affymetrix, Santa Clara, CA). Drugs were profiled in duplicate or triplicate, with multiple vehicle controls on each plate. A total of 708 microarrays were analyzed including 74 for 18 antipsychotics, 499 for 448 other compounds, and 135 for vehicle controls.
# The raw scan data were first converted to average difference values using MAS 5.0 (Affymetrix). The average difference values of both treatment and control data were set to a minimum threshold of 50 if below 50. For each treatment instance, all probe sets were then ranked based on their amplitude, or level of expression relative to the vehicle control (or average of controls when more than one was used). Amplitude was defined as the ratio of expression (t−v)/[(t+v)/2] where t corresponds to treatment instance and v to vehicle instance.
# Each drug group profile was created using a novel Weighted Influence Model, Rank of Ranks (WIMRR) method which underscores the rank of each probe set across the entire gene expression profile rather than the specific change in expression level. WIMRR takes the average rank of each probe set across all of the members of the group and then re-ranks the probe sets from smallest average rank to largest average rank. A gene-set enrichment metric based on the Kolmogorov-Smirnov (KS) statistic.
# Applicant analyzed expression profile of CTSL across all 466 drugs tested. In order to find positive hits and selected only those results that caused decrease of CTSL expression by at least 33% (1.5-fold down).
# FYCO1 = type: cell-based, human; details: ARPE-19 cells
# [1] = rats; cited from earlier work
# [2] = people with nonalcoholic fatty liver disease; cited from earlier work
# [3] = people with diabetes; cited from earlier work
# [4] = sepsis-induced acute lung injury in rats; cited from earlier work
# [5] = people with heart failure; cited from earlier work
# [6] = people with dyslipidemia; cited from earlier work
# [7] = 230 ventilated patients with ALI; cited from earlier work
# [8] = 492 patients; cited from earlier work
# [9] = 404 ALI patients and 177 controls; cited from earlier work
# [10] = within 14 days of treatment; cited from earlier work
Structure (SMILES),log2(treated) CTSL (CTSL),"log2 difference (CTSL, treated vs control) (CTSL)","FYCO1 expression, Difference (treated vs control) (FYCO1)","FYCO1 expression, Treated (FYCO1)",other results
NCC(CC(=O)O)c1ccc(Cl)cc1 (centres unmarked) [Baclofen],9.58 log2,−0.82 log2,−1.2190,6.7222,
"COC1=C(OC)C(=O)C(C/C=C(\C)CC/C=C(\C)CC/C=C(\C)CC/C=C(\C)CC/C=C(\C)CC/C=C(\C)CC/C=C(\C)CC/C=C(\C)CC/C=C(\C)CCC=C(C)C)=C(C)C1=O [CoQ10, Coenzyme Q10]",,,,,fibrosis in the lung and liver [1]: beneficial in attenuating fibrosis; liver and systemic markers of inflammation [2]: improves; total cholesterol and low-density lipoprotein levels [3]: improve; pulmonary edema [4]: improved; survival [4]: improved; mortality and cardiac markers [5]: improves; endothelial dysfunction [6]: improve
CCC1(c2ccccc2)C(=O)NCNC1=O [primidone],,,−1.4959,6.4453,
CC(C)(C)C(=O)Oc1ccc(S(=O)(=O)Nc2ccccc2C(=O)NCC(=O)O)cc1 [sivelestat],,,,,30-day survival rate [7]: no significant effect; ICU stay [7]: shortened; duration of mechanical ventilation [7]: reduced; 28-day all-cause mortality [8]: no effect; ventilator free days [8]: no effect; number of ventilator free days [9]: significantly improved
CC(C)c1c(C(=O)Nc2ccccc2)c(-c2ccccc2)c(-c2ccc(F)cc2)n1CC[C@@H](O)C[C@@H](O)CC(=O)O [Atorvastatin],,,,,decrease of the level of CoQ10 [10]: 49%
O=C1NC(=O)C(c2ccccc2)(c2ccccc2)N1 [Phenytoin],9.56 log2,−0.70 log2,,,
COc1ccc2c(c1)c(CC(=O)O)c(C)n2C(=O)c1ccc(Cl)cc1 [indomethacin],,,−1.539,4.949,
CN1[C@@H]2CC[C@H]1C[C@@H](OC(=O)C(CO)c1ccccc1)C2 (some centres unmarked) [Atropine Sulfate],9.63 log2,−0.70 log2,,,
Cc1ccc(/C(=C\CN2CCCC2)c2ccccn2)cc1 [Triprolidine Hydrochloride],9.54 log2,−0.79 log2,−1.4935,6.4963,
CN(C)CCC(c1ccc(Br)cc1)c1ccccn1 (centres unmarked) [Brompheniramine Maleate],9.57 log2,−0.75 log2,,,
